According to PubChem BioAssay (NCI):
Several values for one entry are separate records, joined by “and”; a condition that tells them apart may be missing. Identical values can stand only once.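 96-well plates; 48 h exposure; 5 concentrations. Endpoints by linear interpolation between flanking doses. Not reached: highest tested concentration assigned. GI50 marks 50% less growth. Definition used: TGI = concentration required for complete inhibition of growth.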 *1 amine or outer side, *2 acyl side, *3 side chain or, on linkers, in order; H or OH if unused. Where a SMILES comes first, the peptide text is derived from it. Bridges are numbered along the chain shown (N, C = ends). [ ]: non-standard residue; d: D form. The star is where a group is joined. Phe(3-Me) = Cc1cccc(C[C@H](N)C(=O)O)c1; NH(4-Cl-2-F-phenyl) = Fc1cc(Cl)ccc1N*; Pro(4R-Me) = C[C@H]1CN[C@H](C(=O)O)C1; Propanoyl(3-NMe2) = CN(C)CCC(=O)*; Hyp = O=C(O)[C@@H]1C[C@@H](O)CN1; aThr = C[C@H](O)[C@H](N)C(=O)O; Pip = O=C(O)[C@@H]1CCCCN1; CO = O=C([*:1])[*:2]

Experiments:
Experiment in all cases: inhibition of tumour cell growth, NCI panel, 48 h
OVCAR-3 ovarian = test system: OVCAR-3 ovarian
UO-31 renal = test system: UO-31 renal
LOX IMVI melanoma = test system: LOX IMVI melanoma
786-0 renal = test system: 786-0 renal
HT29 colon = test system: HT29 colon
SR leukemia = test system: SR leukemia
MDA-MB-231 breast = test system: MDA-MB-231 breast
EKVX NSCLC = test system: EKVX NSCLC
OVCAR-8 ovarian = test system: OVCAR-8 ovarian
COLO 205 colon = test system: COLO 205 colon

Structure (SMILES) | TGI (OVCAR-3 ovarian) | TGI (UO-31 renal) | TGI (LOX IMVI melanoma) | TGI (786-0 renal) | TGI (HT29 colon) [µM] | TGI (SR leukemia) [µM] | TGI (MDA-MB-231 breast) [µM] | TGI (EKVX NSCLC) | TGI (OVCAR-8 ovarian) [µM] | TGI (COLO 205 colon) | GI50 (OVCAR-3 ovarian) [µM] | GI50 (UO-31 renal) [µM] | GI50 (LOX IMVI melanoma) [µM] | GI50 (786-0 renal) [µM] | GI50 (HT29 colon) | GI50 (SR leukemia) [µM] | GI50 (MDA-MB-231 breast) [µM] | GI50 (EKVX NSCLC) [µM] | GI50 (OVCAR-8 ovarian) [µM] | GI50 (COLO 205 colon) [µM]
O=C(O)/C=C\C(=O)Nc1ccc2c(c1)C(=O)c1cc(F)ccc1-2 | > 100 µM | > 100 µM | > 100 µM | > 100 µM | > 100 | > 100 | > 100 | > 100 µM | > 100 | > 100 µM | – | – | – | – | – | – | – | – | – | –
Oc1cc2ccccc2cc1-c1n[nH]c(=S)n1-c1ccc(Cl)cc1 | > 100 µM | 71.8 µM | 50.2 µM | 49.8 µM | 76.3 | > 100 | 38.3 | > 100 µM | > 100 | > 100 µM | 20.3 | 23.2 | 11.2 | 16.1 | 24.6 µM | 3.08 | 8.88 | 28.7 | 38.4 | 41.7
S=C(N/N=C(/c1ccccc1)c1ccccn1)Nc1cccc(Cl)c1 | 1.98 µM and 4.59 µM | 3.34 µM and 4.99 µM | 3.72 µM and > 34 µM | 2.51 µM and 5.56 µM | 11.9 | – | 2.27 | 1.88 µM and 4.7 µM | 2.87 | 2.2 µM and 21.6 µM | < 0.001 | 1.51 | 0.729 | 0.675 | 0.662 µM and 0.0738 µM | 0.00413 | – | 0.433 | 0.0258 | 0.0168
O=S(=O)(NCCCNc1cc(-c2cn(-c3ccccc3)nc2-c2cccc(O)c2)ccn1)c1ccc(Cl)cc1 | 3.7 µM | 8.64 µM | 2.77 µM | 4.19 µM | 1.7 | 5.16 | 4.69 | 29.6 µM | 6.06 | 3.16 µM | 1.67 | 2.03 | 1.42 | 1.56 | 0.471 µM | 1.58 | 1.81 | 2.05 | 2.11 | 1.57
COc1ccc(CNc2nc(NCc3ccc(OC)cc3)c3n[nH]c(C(C)C)c3n2)cc1 | 14.5 µM | 15 µM | 17.3 µM | 20.6 µM | 10.7 | 6.17 | 21.8 | 23.8 µM | 53.6 | – | 3.04 | 4.81 | 4.45 | 4.07 | 1.61 µM | 2.48 | 4.67 | 8.09 | 12.5 | –
CCN1CCN(C(=O)[C@]23CCC(C)(C)C[C@@H]2C2=CC[C@@H]4[C@@]5(C)C/C(=C/c6cccnc6)C(=O)C(C)(C)[C@@H]5CC[C@@]4(C)[C@]2(C)CC3)CC1 | 2.95 µM | 2.67 µM | 2.73 µM | 3.08 µM | 4.67 | 5.1 | 2.84 | 6.48 µM | 5.54 | 4.74 µM | 1.51 | 1.35 | 1.36 | 1.6 | 1.71 µM | 0.706 | 1.4 | 1.9 | 2.14 | 1.89
O=C1C(Cl)=C(Nc2cccc(O)c2)C(=O)N1c1cccc(Cl)c1Cl | – | > 100 µM | 28.5 µM | 63.2 µM | 58.3 | 10.3 | 34.2 | > 100 µM | 30.4 | 38.9 µM | – | 23.3 | 12.5 | 18.2 | 18.5 µM | 0.57 | 12.3 | 49.6 | 15.1 | 15.3
CN1CCCCC1CCN1c2ccccc2Sc2ccc(S(C)=O)cc21 (stereo not drawn) | > 100 µM | – | > 100 µM | > 100 µM | > 100 | > 100 | > 100 | > 100 µM | > 100 | > 100 µM | – | – | – | – | – | – | – | – | – | –
Cc1cccc(C[C@H](NC(=O)Nc2ccc(Cl)cc2F)C(=O)N[C@@H]2C(=O)N3C[C@H](OC(=O)CCN(C)C)C[C@H]3C(=O)N3CCCC[C@H]3C(=O)N[C@@H](C)C(=O)N3C[C@H](C)C[C@H]3C(=O)O[C@H]2C)c1 ({NH(4-Cl-2-F-phenyl)-CO}-[Phe(3-Me)][aThr][Hyp](Propanoyl(3-NMe2))[Pip]A[Pro(4R-Me)]; ester 2-C) | 1.47 µM | 7.13 µM | 2.2 µM | 5.66 µM | 2.82 | 3.94 | 1.66 | 6.25 µM | 12.9 | 1.43 µM | 0.362 | 2.17 | 0.683 | 1.39 | 0.526 µM | 0.624 | 0.417 | 0.976 | 0.431 | 0.355
CCCCCCCCCC(CCCC(O)CC(=O)O)OC1OC(COC2OC(C)C(O)C(O)C2O)C(O)C(O)C1OC1OC(CO)C(O)C(O)C1OC1OC(C)C(O)C(O)C1O (stereo not drawn) | > 40 µM | > 40 µM | > 40 µM | > 40 µM | > 40 | > 40 | > 40 | > 40 µM | > 40 | > 40 µM | > 40 | > 40 | > 40 | > 40 | > 40 µM | > 40 | > 40 | > 40 | > 40 | > 40
